Consider 31 compounds from patent US20260209214A1, “LSD1 MODULATORS” (RECURSION PHARMACEUTICALS, INC., priority 2022, published 2026).

Each structure is given as a SMILES string. Read-outs that look alike come from different tables or passages of the source.

The assay concerns the target Recombinant human LSD1 (Homo sapiens, UniProt O60341). In words: LSD1 inhibition assay (HTRF LSD1 Histone H3K4 mono-demethylation assay, me1->me0). In kind it is biochemical. Conditions: 20 nM recombinant human LSD1, 95 nM H3K4(me1) biotinylated peptide, 15 min preincubation, 60 min at 25° C. The essentials: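 HTRF demethylation (me1->me0) read-out: streptavidin-XL665 and anti-H3K4me0 cryptate added after reaction, ratio measured after 90 min dark. Reaction: 95 nM H3K4me1 biotin-peptide, 20 nM LSD1 (15-min compound pre-incubation), 60 min, 25 °C, buffer pH 8.5 plus FAD and DTT; 4-parameter logistic IC50.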
(In general: TR-FRET usually uses a lanthanide donor and a delayed reading to cut background.)

Setting [1] is: read-out: LSD1 inhibition IC50 (nM range).

Consider `N#Cc1ccc(-c2cccc(CN3C[C@]4(N)CC[C@H]3C4)c2C2CC2)cc1F` [Example 193, 3'-{[(1S,4S)-4-amino-2-azabicyclo[2.2.1]heptan-2-yl]methyl}-2'-cyclopropyl-3-fluoro-[1,1'-biphenyl]-4-carbonitrile], for which, under setting [1], the IC50 was in the range of 10 to 25 nM.
Take `CN[C@]12CC[C@H](C1)N(Cc1cccc(-c3ccc(C#N)c(F)c3)c1C1CC1)C2` [Example 195, 2'-cyclopropyl-3-fluoro-3'-{[(1R,4R)-4-(methylamino)-2-azabicyclo[2.2.1]heptan-2-yl]methyl}-[1,1'-biphenyl]-4-carbonitrile]: under setting [1], the concentration for half-maximal inhibition (IC50) lay in the range of 10 to 25 nM.
Consider `N#Cc1ccc(-c2cccc(CN3C[C@]4(N)CC[C@H]3C4)c2Cl)cc1F` [Example 196, 3'-{[(1S,4S)-4-amino-2-azabicyclo[2.2.1]heptan-2-yl]methyl}-2'-chloro-3-fluoro-[1,1'-biphenyl]-4-carbonitrile], for which, under setting [1], the concentration for half-maximal inhibition (IC50) fell in the range of 25 to 100 nM.
As for `CC1(C)CN(Cc2cccc(-c3ccc(C#N)c(F)c3)c2-c2ccns2)CC1N` (stereo not shown) [Example 198, 3'-[(4-amino-3,3-dimethylpyrrolidin-1-yl)methyl]-3-fluoro-2'-(1,2-thiazol-5-yl)-[1,1'-biphenyl]-4-carbonitrile], the IC50 under setting [1] was in the range of 10 to 25 nM.
On to `N#Cc1ccc(-c2cccc(CN3CCC4CC3CN4)c2C2CC2)cc1F` (stereo not shown) [Example 199, 2'-cyclopropyl-3'-({2,6-diazabicyclo[3.2.1]octan-2-yl}methyl)-3-fluoro-[1,1'-biphenyl]-4-carbonitrile], for which, under setting [1], the concentration for half-maximal inhibition (IC50) lay within 10 to 25 nM.
On the same count and under the same terms, next, `C[C@]1(N)CCN(Cc2cccc(-c3ccc(C#N)c(F)c3)c2C2CC2)C1` [Example 202, 3'-{[(3S)-3-amino-3-methylpyrrolidin-1-yl]methyl}-2'-cyclopropyl-3-fluoro-[1,1'-biphenyl]-4-carbonitrile]: 25 to 100 nM.
As for `CC1(N)CCN(Cc2cccc(-c3ccc(C#N)c(F)c3)c2C2CC2)CC1` [Example 205, 3'-[(4-amino-4-methylpiperidin-1-yl)methyl]-2'-cyclopropyl-3-fluoro-[1,1'-biphenyl]-4-carbonitrile], the half-inhibitory concentration (IC50) under setting [1] fell in the range of 25 to 100 nM.
For the compound `N#Cc1ccc(-c2ccc(F)c(CN3C[C@]4(N)CC[C@H]3C4)c2Cl)cc1F` [Example 208, 3'-{[(1S,4S)-4-amino-2-azabicyclo[2.2.1]heptan-2-yl]methyl}-2'-chloro-3,4'-difluoro-[1,1'-biphenyl]-4-carbonitrile], the half-maximal inhibitory concentration (IC50) under setting [1] was in the range of 25 to 100 nM.
As for `N#Cc1ccc(-c2cccc(CN3CC4CCC(C3)N4)c2C2CC2)cc1F` [Example 210, 2'-cyclopropyl-3'-({3,8-diazabicyclo[3.2.1]octan-3-yl}methyl)-3-fluoro-[1,1'-biphenyl]-4-carbonitrile], under setting [1], the IC50 was 10 to 25 nM.
The same measure, in the same setting: under `CN[C@H]1CCN(Cc2cccc(-c3ccc(C#N)c(F)c3)c2C2CC2)C1` [Example 211, 2'-cyclopropyl-3-fluoro-3'-{[(3S)-3-(methylamino)pyrrolidin-1-yl]methyl}-[1,1'-biphenyl]-4-carbonitrile] stands 25 to 100 nM.
On to `CN1CC2(C1)CN(Cc1cccc(-c3ccc(C#N)c(F)c3)c1Cl)C2` [Example 214, CN1CC2(C1)CN(Cc3cccc(c3Cl)c4ccc(C#N)c(F)c4)C2], for which the IC50 (LSD1 inhibition IC50 (nM range)) was more than 1000 nM.
As to `CN[C@H]1CCCN(Cc2cccc(-c3ccc(C#N)c(F)c3)c2C2CC2)CC1` [Example 215, 2'-cyclopropyl-3-fluoro-3'-{[(4S)-4-(methylamino)azepan-1-yl]methyl}-[1,1'-biphenyl]-4-carbonitrile], the concentration for half-maximal inhibition (IC50) under setting [1] is 25 to 100 nM.
Still for that read-out and setting: under `COCC1CCN(c2ccc(CN3C[C@]4(N)CC[C@H]3C4)cc2-c2ccc(C#N)c(F)c2)CC1` [Example 216, 5'-{[(1S,4S)-4-amino-2-azabicyclo[2.2.1]heptan-2-yl]methyl}-3-fluoro-2'-[4-(methoxymethyl)piperidin-1-yl]-[1,1'-biphenyl]-4-carbonitrile] stands less than 10 nM.
The same measure, in the same setting: next, `N#Cc1ccc(-c2cc(CN3C[C@]4(N)CC[C@H]3C4)ccc2N2CCC3(CCCO3)CC2)cc1F` [Example 217, 5'-{[(1S,4S)-4-amino-2-azabicyclo[2.2.1]heptan-2-yl]methyl}-3-fluoro-2'-{1-oxa-8-azaspiro[4.5]decan-8-yl}-[1,1'-biphenyl]-4-carbonitrile]: 10 to 25 nM; `N#Cc1ccc(-c2cccc(CN3C[C@@]4(N)CC[C@@H]3C4)c2C2CC2)cc1F` [Example 225, 3'-{[(1R,4R)-4-amino-2-azabicyclo[2.2.1]heptan-2-yl]methyl}-2'-cyclopropyl-3-fluoro-[1,1'-biphenyl]-4-carbonitrile]: 100 to 1000 nM; `Cc1cc(CNCC2CCN(C)C2)c(Cl)c(-c2ccc(C#N)c(F)c2)c1` (stereo not shown) [Example 226, 2'-chloro-3-fluoro-5'-methyl-3'-({[(1-methylpyrrolidin-3-yl)methyl]amino}methyl)-[1,1'-biphenyl]-4-carbonitrile]: 100 to 1000 nM.
With `N#Cc1ccc(-c2cccc(CN3CC4CCC3C(N)C4)c2C2CC2)cc1F` (stereo not shown) [Example 227, 3'-({6-amino-2-azabicyclo[2.2.2]octan-2-yl}methyl)-2'-cyclopropyl-3-fluoro-[1,1'-biphenyl]-4-carbonitrile], under setting [1], the IC50 is 25 to 100 nM.
Same read-out and setting: under `CN[C@@H]1CCN(Cc2cccc(-c3ccc(C#N)c(F)c3)c2C2CC2)C1` [Example 228, 2'-cyclopropyl-3-fluoro-3'-{[(3R)-3-(methylamino)pyrrolidin-1-yl]-methyl}-[1,1'-biphenyl]-4-carbonitrile] stands 100 to 1000 nM; under `Cn1nc2ccc(-c3ccc(CN4C[C@@]5(N)CC[C@@H]4C5)cc3-c3ccc(C#N)c(F)c3)cc2c1Cl` [Example 233, 5'-{[(1R,4R)-4-amino-2-azabicyclo[2.2.1]heptan-2-yl]methyl}-2'-(3-chloro-2-methyl-2H-indazol-5-yl)-3-fluoro-[1,1'-biphenyl]-4-carbonitrile], 10 to 25 nM.
Still for that read-out and setting: next, `N#Cc1ccc(-c2cc(CN3C[C@]4(N)CC[C@H]3C4)ccc2N2CCC3(CCOC3)CC2)cc1F` [Example 234, 5'-{[(1S,4S)-4-amino-2-azabicyclo[2.2.1]heptan-2-yl]methyl}-3-fluoro-2'-{2-oxa-8-azaspiro[4.5]decan-8-yl}-[1,1'-biphenyl]-4-carbonitrile]: less than 10 nM.
As to `N#Cc1ccc(-c2cccc(Cn3cc4c(n3)CNCC4)c2-c2cncs2)cc1F` [Example 236, 3-fluoro-3'-({2H,4H,5H,6H,7H-pyrazolo[3,4-c]pyridin-2-yl}methyl)-2'-(1,3-thiazol-5-yl)-[1,1'-biphenyl]-4-carbonitrile], the IC50 under setting [1] was 25 to 100 nM.
For the compound `N#Cc1ccc(-c2cccc(CN3C[C@@H]4C[C@@H](N)[C@H]3C4)c2-c2cncs2)cc1F` [Example 237, 3'-{[(1R,4R,6R)-6-amino-2-azabicyclo[2.2.1]heptan-2-yl]methyl}-3-fluoro-2'-(1,3-thiazol-5-yl)-[1,1'-biphenyl]-4-carbonitrile], under setting [1], the IC50 was 10 to 25 nM.
With `N#Cc1ccc(-c2cccc(CN3CC4CNCC3C4)c2Cl)cc1F` (stereo not shown) [Example 238, 2'-chloro-3'-({3,6-diazabicyclo[3.2.1]octan-6-yl}methyl)-3-fluoro-[1,1'-biphenyl]-4-carbonitrile], the IC50 under setting [1] is 100 to 1000 nM.
In the case of `CN1CCC12CCN(Cc1c(F)ccc(-c3ccc(C#N)c(F)c3)c1N1CCC1)C2` (stereo not shown) [Example 239, 2'-(azetidin-1-yl)-3,4'-difluoro-3'-({1-methyl-1,6-diazaspiro[3.4]octan-6-yl}methyl)-[1,1'-biphenyl]-4-carbonitrile], under setting [1], the 50% inhibitory concentration (IC50) was in the range of 25 to 100 nM.
In the case of `C[C@@]1(N)CCN(Cc2cccc(-c3ccc(C#N)c(F)c3)c2-c2ccns2)C1` [Example 242, 3'-{[(3R)-3-amino-3-methylpyrrolidin-1-yl]methyl}-3-fluoro-2'-(1,2-thiazol-5-yl)-[1,1'-biphenyl]-4-carbonitrile], the 50% inhibitory concentration (IC50) under setting [1] lay in the range of 10 to 25 nM.
Turning to `CC(C)C1(O)CCN(c2ccc(CN3C[C@]4(N)CC[C@H]3C4)cc2-c2ccc(C#N)c(F)c2)CC1` [Example 262, 5'-{[(1S,4S)-4-amino-2-azabicyclo[2.2.1]heptan-2-yl]methyl}-3-fluoro-2'-[4-hydroxy-4-(propan-2-yl)piperidin-1-yl]-[1,1'-biphenyl]-4-carbonitrile], the IC50 under setting [1] lay within 10 to 25 nM.
On the same count and under the same terms, next, `Cn1nc2ccc(-c3ccc(CN4C[C@]5(N)CC[C@H]4C5)cc3-c3ccc(C#N)c(F)c3)cc2c1Cl` [Example 263, 5'-{[(1S,4S)-4-amino-2-azabicyclo[2.2.1]heptan-2-yl]methyl}-2'-(3-chloro-2-methyl-2H-indazol-5-yl)-3-fluoro-[1,1'-biphenyl]-4-carbonitrile]: less than 10 nM; `Cn1cc2cc(-c3ccc(CN4C[C@]5(N)CC[C@H]4C5)cc3-c3ccc(C#N)c(F)c3)ccc2n1` [Example 264, 5'-{[(1S,4S)-4-amino-2-azabicyclo[2.2.1]heptan-2-yl]methyl}-3-fluoro-2'-(2-methyl-2H-indazol-5-yl)-[1,1'-biphenyl]-4-carbonitrile]: 10 to 25 nM; `N#Cc1ccc(-c2cccc(CN3C4CCC3CNC4)c2C2CC2)cc1F` [Example 265, 2'-cyclopropyl-3'-({3,8-diazabicyclo[3.2.1]octan-8-yl}methyl)-3-fluoro-[1,1'-biphenyl]-4-carbonitrile]: 25 to 100 nM.
Still for that read-out and setting: next, `N#Cc1ccc(-c2cccc(CN3CCC4(CCCN4)C3)c2C2CC2)cc1F` (stereo not shown) [Example 266, Fc1cc(ccc1C#N)c2cccc(CN3CCC4(CCCN4)C3)c2C5CC5]: 100 to 1000 nM; `N#Cc1ccc(-c2cccc(CN3CCCC4(CCN4)C3)c2C2CC2)cc1F` (stereo not shown) [Example 267, 2'-cyclopropyl-3'-({1,6-diazaspiro[3.5]nonan-6-yl}methyl)-3-fluoro-[1,1'-biphenyl]-4-carbonitrile]: 100 to 1000 nM.

A word on the IC50: it is the concentration at which inhibition is half-maximal.
